According to ChEMBL document CHEMBL1138190, “Synthesis and antibacterial activity of novel C12 vinyl ketolides” (J Med Chem, 2006):
In brackets after ≈: the same amount, converted by molar mass. Activity calls are given as the source filed them. The calls are words filed in the database; no cut-off is given here.

How the values were obtained:
Streptococcus pneumoniae [1] = assay: Antibacterial activity against Streptococcus pneumoniae Mef 3855; type: functional
Enterococcus faecalis [2] = assay: Antibacterial activity against Enterococcus faecalis bc11148-2; type: functional
Streptococcus pneumoniae [3] = assay: Antibacterial activity against Streptococcus pneumoniae Erm 3120; type: functional
Streptococcus pneumoniae [4] = assay: Antibacterial activity against Streptococcus pneumoniae Mef 2880; type: functional
Streptococcus pneumoniae [5] = assay: Antibacterial activity against Streptococcus pneumoniae Erm 2218; type: functional
Streptococcus pneumoniae [6] = assay: Antibacterial activity against Streptococcus pneumoniae Erm S 4297; type: functional
Streptococcus pneumoniae [7] = assay: Antibacterial activity against Streptococcus pneumoniae Mef 6966; type: functional
[8] = system: Staphylococcus epidermidis; assay: Antibacterial activity against Staphylococcus epidermidis f50654; type: functional
Streptococcus pneumoniae [9] = assay: Antibacterial activity against Streptococcus pneumoniae Mef 9142; type: functional
Streptococcus pneumoniae [10] = assay: Antibacterial activity against Streptococcus pneumoniae Mef 1556; type: functional
Haemophilus influenzae [11] = assay: Antibacterial activity against Haemophilus influenzae 49247; type: functional
[12] = Volume of distribution in Sprague-Dawley rat at 5 mg/kg, iv and 15 mg/kg, po; type: ADME, organism-based; conditions: in vivo, read-out: Vdss
Streptococcus pneumoniae [13] = assay: Antibacterial activity against Streptococcus pneumoniae Erm 8947; type: functional
Streptococcus pneumoniae [14] = assay: Antibacterial activity against Streptococcus pneumoniae Mef 4126; type: functional
Streptococcus pneumoniae [15] = assay: Antibacterial activity against Streptococcus pneumoniae Mef 10095; type: functional
Streptococcus pneumoniae [16] = assay: Antibacterial activity against Streptococcus pneumoniae Erm 8339; type: functional
Streptococcus pneumoniae [17] = assay: Antibacterial activity against Streptococcus pneumoniae Mef 1566; type: functional
Streptococcus pneumoniae [18] = assay: Antibacterial activity against Streptococcus pneumoniae Erm 6388; type: functional
Streptococcus pneumoniae [19] = assay: Antibacterial activity against Streptococcus pneumoniae Erm 867; type: functional
Streptococcus pneumoniae [20] = assay: Antibacterial activity against Streptococcus pneumoniae Mef 3449; type: functional
Streptococcus pneumoniae [21] = assay: Antibacterial activity against Streptococcus pneumoniae Erm 6849; type: functional
Rattus norvegicus [22] = assay: Efficacy against Streptococcus pneumoniae Mef in Sprague-Dawley rat lung infection model at 100 mg/kg; type: functional, organism-based; parameters: dose 100 mg/kg
Streptococcus pneumoniae [23] = assay: Antibacterial activity against Streptococcus pneumoniae Mef 5654; type: functional
Streptococcus pneumoniae [24] = assay: Antibacterial activity against Streptococcus pneumoniae Erm 10279; type: functional
Streptococcus pneumoniae [25] = assay: Antibacterial activity against Streptococcus pneumoniae Mef S 3435; type: functional
Streptococcus pneumoniae [26] = assay: Antibacterial activity against Streptococcus pneumoniae Mef S 3427; type: functional
Streptococcus pneumoniae [27] = assay: Antibacterial activity against Streptococcus pneumoniae Erm 5354; type: functional
Streptococcus pneumoniae [28] = assay: Antibacterial activity against Streptococcus pneumoniae Erm 5399; type: functional
Streptococcus pneumoniae [29] = assay: Antibacterial activity against Streptococcus pneumoniae Erm 8919; type: functional
Streptococcus pneumoniae [30] = assay: Antibacterial activity against Streptococcus pneumoniae Erm 6396; type: functional
Streptococcus pneumoniae [31] = assay: Antibacterial activity against Streptococcus pneumoniae Mef 41; type: functional
[32] = Clearance in Sprague-Dawley rat at 5 mg/kg, iv and 15 mg/kg, po; type: ADME, organism-based; conditions: in vivo
Streptococcus pneumoniae [33] = assay: Antibacterial activity against Streptococcus pneumoniae Mef 5649; type: functional
Streptococcus pneumoniae [34] = assay: Antibacterial activity against Streptococcus pneumoniae Erm S 4085; type: functional
Staphylococcus aureus [35] = assay: Antibacterial activity against Staphylococcus aureus 33591; type: functional
Streptococcus pneumoniae [36] = assay: Antibacterial activity against Streptococcus pneumoniae Mef 1790; type: functional
Streptococcus pneumoniae [37] = assay: Antibacterial activity against Streptococcus pneumoniae Mef 9959; type: functional
[38] = system: Staphylococcus epidermidis; assay: Antibacterial activity against Staphylococcus epidermidis 14990; type: functional
Rattus norvegicus [39] = assay: Efficacy against Streptococcus pneumoniae Erm in Sprague-Dawley rat lung infection model at 100 mg/kg; type: functional, organism-based; parameters: dose 100 mg/kg
Streptococcus pneumoniae [40] = assay: Antibacterial activity against Streptococcus pneumoniae Erm 4290; type: functional
Streptococcus pneumoniae [41] = assay: Antibacterial activity against Streptococcus pneumoniae Erm 7985; type: functional
Haemophilus influenzae [42] = assay: Antibacterial activity against Haemophilus influenzae 2762; type: functional
[43] = Lung half life in Sprague-Dawley rat at 15 mg/kg, po; type: ADME, organism-based; parameters: dose 15 mg/kg, route oral
Streptococcus pneumoniae [44] = assay: Antibacterial activity against Streptococcus pneumoniae Erm 8257; type: functional
Streptococcus pyogenes = assay: Antibacterial activity against Streptococcus pyogenes 8668; type: functional
Rattus norvegicus [45] = assay: Efficacy against Haemophilus influenzae in Sprague-Dawley rat lung infection model at 100 mg/kg; type: functional, organism-based; parameters: dose 100 mg/kg
Streptococcus pneumoniae [46] = assay: Antibacterial activity against Streptococcus pneumoniae Erm 5590; type: functional
Streptococcus pneumoniae [47] = assay: Antibacterial activity against Streptococcus pneumoniae Erm 5554; type: functional
[48] = Lung-to-plasma AUC ratio in Sprague-Dawley rat at 5 mg/kg, iv; type: ADME, organism-based; parameters: dose 5 mg/kg, route intravenous; conditions: lung and plasma
[49] = Oral bioavailability in Sprague-Dawley rat at 100 mg/kg, po; type: ADME, organism-based; conditions: in vivo
Streptococcus pneumoniae [50] = assay: Antibacterial activity against Streptococcus pneumoniae 297-749; type: functional
Streptococcus pneumoniae [51] = assay: Antibacterial activity against Streptococcus pneumoniae 49619; type: functional
Streptococcus pneumoniae [52] = assay: Antibacterial activity against Streptococcus pneumoniae 280-962; type: functional
Streptococcus pneumoniae [53] = assay: Antibacterial activity against Streptococcus pneumoniae Mef 4331; type: functional
Staphylococcus aureus [54] = assay: Antibacterial activity against Staphylococcus aureus 29213; type: functional
Streptococcus pneumoniae [55] = assay: Antibacterial activity against Streptococcus pneumoniae Mef 2382; type: functional
Enterococcus faecalis [56] = assay: Antibacterial activity against Enterococcus faecalis 29212; type: functional
Streptococcus pneumoniae [57] = assay: Antibacterial activity against Streptococcus pneumoniae Erm 5415; type: functional
Streptococcus pneumoniae [58] = assay: Antibacterial activity against Streptococcus pneumoniae Mef 953; type: functional
Streptococcus pneumoniae [59] = assay: Antibacterial activity against Streptococcus pneumoniae Erm 4589; type: functional
Streptococcus pneumoniae [60] = assay: Antibacterial activity against Streptococcus pneumoniae Mef 983; type: functional

CC[C@H]1OC(=O)[C@H](C)C(=O)[C@H](C)[C@@H](O[C@@H]2O[C@H](C)C[C@H](N(C)C)[C@H]2O)[C@](C)(OC)C[C@@H](C)C(=O)[C@H](C)[C@H]2N(CCCCn3cnc(-c4cccnc4)c3)C(=O)O[C@]12C [TELITHROMYCIN]
MIC (Streptococcus pneumoniae [1]): 0.25 mg/L (≈ 0.308 µM)
MIC (Enterococcus faecalis [2]): 0.4 mg/L (≈ 0.493 µM)
MIC (Streptococcus pneumoniae [3]): 0.1 mg/L (≈ 0.123 µM)
MIC (Streptococcus pneumoniae [4]): 0.13 mg/L (≈ 0.16 µM)
MIC (Streptococcus pneumoniae [5]): 0.025 mg/L (≈ 0.0308 µM)
MIC (Streptococcus pneumoniae [6]): 0.1 mg/L (≈ 0.123 µM)
MIC (Streptococcus pneumoniae [7]): 0.25 mg/L (≈ 0.308 µM)
MIC [8]: 0.1 mg/L (≈ 0.123 µM)
MIC (Streptococcus pneumoniae [9]): 0.5 mg/L (≈ 0.616 µM)
MIC (Streptococcus pneumoniae [10]): 0.13 mg/L (≈ 0.16 µM)
MIC (Haemophilus influenzae [11]): 3.13 mg/L (≈ 3.85 µM)
Vd [12]: 5 L/kg
MIC (Streptococcus pneumoniae [13]): 0.1 mg/L (≈ 0.123 µM)
MIC (Streptococcus pneumoniae [14]): 0.06 mg/L (≈ 0.0739 µM)
MIC (Streptococcus pneumoniae [15]): 0.06 mg/L (≈ 0.0739 µM)
MIC (Streptococcus pneumoniae [16]): 0.78 mg/L (≈ 0.961 µM)
MIC (Streptococcus pneumoniae [17]): 0.5 mg/L (≈ 0.616 µM)
MIC (Streptococcus pneumoniae [18]): 0.78 mg/L (≈ 0.961 µM)
MIC (Streptococcus pneumoniae [19]): 0.025 mg/L (≈ 0.0308 µM)
MIC (Streptococcus pneumoniae [20]): 0.25 mg/L (≈ 0.308 µM)
MIC (Streptococcus pneumoniae [21]): 0.2 mg/L (≈ 0.246 µM)
Activity (Rattus norvegicus [22]): inactive
MIC (Streptococcus pneumoniae [23]): 0.5 mg/L (≈ 0.616 µM)
MIC (Streptococcus pneumoniae [24]): 0.025 mg/L (≈ 0.0308 µM)
MIC (Streptococcus pneumoniae [25]): 0.06 mg/L (≈ 0.0739 µM)
MIC (Streptococcus pneumoniae [26]): 0.13 mg/L (≈ 0.16 µM)
MIC (Streptococcus pneumoniae [27]): 0.025 mg/L (≈ 0.0308 µM)
MIC (Streptococcus pneumoniae [28]): ≤ 0.013 mg/L
MIC (Streptococcus pneumoniae [29]): 0.025 mg/L (≈ 0.0308 µM)
MIC (Streptococcus pneumoniae [30]): 0.1 mg/L (≈ 0.123 µM)
MIC (Streptococcus pneumoniae [31]): 0.13 mg/L (≈ 0.16 µM)
clearance [32]: 6 L/h/kg
MIC (Streptococcus pneumoniae [33]): 0.5 mg/L (≈ 0.616 µM)
MIC (Streptococcus pneumoniae [34]): ≤ 0.013 mg/L
MIC (Staphylococcus aureus [35]): > 50 mg/L
MIC (Streptococcus pneumoniae [36]): 0.5 mg/L (≈ 0.616 µM)
MIC (Streptococcus pneumoniae [37]): 0.25 mg/L (≈ 0.308 µM)
MIC [38]: 0.1 mg/L (≈ 0.123 µM)
Activity (Rattus norvegicus [39]): inactive
MIC (Streptococcus pneumoniae [40]): ≤ 0.013 mg/L
MIC (Streptococcus pneumoniae [41]): ≤ 0.013 mg/L
MIC (Haemophilus influenzae [42]): 0.4 mg/L (≈ 0.493 µM)
half-life [43]: 1.3 h
MIC (Streptococcus pneumoniae [44]): ≤ 0.013 mg/L
MIC (Streptococcus pyogenes): ≤ 0.05 mg/L
Activity (Rattus norvegicus [45]): inactive
MIC (Streptococcus pneumoniae [46]): ≤ 0.013 mg/L
MIC (Streptococcus pneumoniae [47]): 0.2 mg/L (≈ 0.246 µM)
Kp [48]: 16
bioavailability [49]: 84%
MIC (Streptococcus pneumoniae [50]): ≤ 0.05 mg/L
MIC (Streptococcus pneumoniae [51]): ≤ 0.05 mg/L
MIC (Streptococcus pneumoniae [52]): ≤ 0.05 mg/L
MIC (Streptococcus pneumoniae [53]): 1 mg/L (≈ 1.23 µM)
MIC (Staphylococcus aureus [54]): 0.1 mg/L (≈ 0.123 µM)
MIC (Streptococcus pneumoniae [55]): 0.25 mg/L (≈ 0.308 µM)
MIC (Enterococcus faecalis [56]): ≤ 0.05 mg/L
MIC (Streptococcus pneumoniae [57]): 0.025 mg/L (≈ 0.0308 µM)
MIC (Streptococcus pneumoniae [58]): 0.13 mg/L (≈ 0.16 µM)
MIC (Streptococcus pneumoniae [59]): 0.025 mg/L (≈ 0.0308 µM)
MIC (Streptococcus pneumoniae [60]): 0.5 mg/L (≈ 0.616 µM)
